Laboratory results taken from patent publication US10105372B2, “Methods of treating obesity using antioxidant inflammation modulators” (REATA PHARMACEUTICALS, INC., priority 2010, dated 2018).
Entries after “also recorded” stand apart in the source; their conditions may differ.

Columns and labels:
[1] = 12-month toxicity study, body weight; assay type: in vivo, cynomolgus monkeys; conditions: for % gain / kg gained: pretest to Week 50
Experimental: All the animals were healthy and within normal weights for their age at the start of the study. The dose levels were 0, 30/5, 100/30, and 300 mg/kg/day and administered at a dose volume of 3 mL per dose. The control group received the vehicle in the same manner as the treated groups. Just prior to administration, the test article for each animal was added to the syringe containing the vehicle for each animal and vortexed until thoroughly mixed to achieved the desired concentrations of 30, 100, and 300 mg/mL through Day 42 (Week 6). During administration, the syringe containing the test article preparation for each animal was pushed through the gavage tube. The 1 mL vehicle rinse was then added to the dosing syringe and administered. After administration of both volumes, a 5 mL flush of the vehicle was used to rinse the gavage tube and ensure that the entire amount of the test article was administered to the animal. […] Therefore, dose levels were adjusted so that different blood exposures could be examined. During Week 7 dosing for all animals was stopped for four days (Days 43 to 46). The initial dose levels of 30 and 100 mg/kg/day were reduced to 5 and 30 mg/kg/day, respectively, and dosing was resumed on Day 47 through Day 353. Individual doses were based on the most recent body weights.

[2] = Phase 2b/3 trial, weight over 52 weeks; assay type: in vivo, human
Experimental: Weight measurements were included in the study as a basic clinical parameter. […] Screening estimated GFR was calculated as the mean of two estimated GFR results (differing no more than 25%) collected at least 5 days apart within a 3-week period. […] Exclusion criteria included type 1 diabetes, non-diabetic kidney disease, hemoglobin A1c>10%, QTc […] interval >450 milliseconds, evidence of hepatic dysfunction, and recent cardiovascular disease. […] Study drug was taken orally once daily in the morning one hour prior to food intake. Dose titration occurred as follows: (1) placebo; (2) 25 mg; (3) 25 mg, increased to 75 mg after 4 weeks; and (4) 25 mg, increased to 75 mg after 4 weeks, further increased to 150 mg after an additional 4 weeks. Randomization was stratified by CKD stage (3b versus 4), urinary albumin to creatinine ratio (ACR; ≤ versus >300 mg/g), and glucose control (hemoglobin A1c< versus ≥7%). An independent Data Safety Monitoring Board monitored patient safety. […] The double-blinded structure of the study was maintained throughout the 52-week period. […] Treatment was discontinued in all groups at week 52 (including the placebo group), and final clinical and laboratory measurements were taken at week 56.

[3] = 75 mg, Week 56 (treatment discontinued at week 52)
[4] = by week 52, patients treated with bardoxolone methyl

## COC(=O)[C@]12CCC(C)(C)C[C@H]1[C@H]1C(=O)C=C3[C@@]4(C)C=C(C#N)C(=O)C(C)(C)[C@@H]4CC[C@@]3(C)[C@]1(C)CC2 [bardoxolone methyl]
[1]; Females, 300 mg/kg/day
  Week 26 Weight: 2.552 kg
  Week 50 Weight: 2.68 kg
  % gain: 28.60%
  kg gained: 0.596 kg
[1]; Females, 30/5 mg/kg/day
  Week 26 Weight: 2.454 kg
  Week 50 Weight: 2.608 kg
  % gain: 26.05%
  kg gained: 0.539 kg
[1]; Females, 100/30 mg/kg/day
  Week 26 Weight: 2.293 kg
  Week 50 Weight: 2.68 kg
  % gain: 30.22%
  kg gained: 0.622 kg
[1]; Males, 300 mg/kg/day
  Week 26 Weight: 2.52 kg
  Week 50 Weight: 2.808 kg
  % gain: 31.15%
  kg gained: 0.667 kg
[1]; Males, 30/5 mg/kg/day
  Week 50 Weight: 2.975 kg
  % gain: 39.80%
  kg gained: 0.847 kg
[1]; Males, 30/5 mg/kg/day oral gavage
  Week 26 Weight: 2.567 kg
[1]; Males, 100/30 mg/kg/day
  Week 26 Weight: 2.464 kg
  Week 50 Weight: 2.725 kg
  % gain: 26.63%
  kg gained: 0.573 kg
[1]; healthy monkeys with normal body weights, all treated groups, 26 and 50 weeks
  effect on body weight: gained significant amounts of weight; also recorded: did not induce weight loss
[2]; 25 mg, N = 48
  Change in weight from baseline to Week 52: Decrease >5 kg, patients: 35 (73) n (%)
  Change in weight from baseline to Week 52: Decrease >10 kg, patients: 16 (33) n (%)
  Change in weight from baseline to Week 52: Decrease >15 kg, patients: 9 (19) n (%)
  Change in weight from baseline to Week 52: Decrease within 5 kg, patients: 8 (17) n (%)
  Change in weight from baseline to Week 52: Increase >5 kg, patients: 0 n (%)
  Change in weight from baseline to Week 52: Increase within 5 kg, patients: 5 (10) n (%)
[2]; 25 mg, Week 4
  Change from baseline weight, Mean: -1.4 kg
[2]; 25 mg, Week 8
  Change from baseline weight, Mean: -2.7 kg
[2]; 25 mg, Week 12
  Change from baseline weight, Mean: -3.9 kg
[2]; 25 mg, Week 16
  Change from baseline weight, Mean: -4.3 kg
[2]; 25 mg, Week 20
  Change from baseline weight, Mean: -5.0 kg
[2]; 25 mg, Week 24
  Change from baseline weight, Mean: -5.9 kg
[2]; 25 mg, Week 28
  Change from baseline weight, Mean: -6.3 kg
[2]; 25 mg, Week 32
  Change from baseline weight, Mean: -6.7 kg
[2]; 25 mg, Week 36
  Change from baseline weight, Mean: -7.4 kg
[2]; 25 mg, Week 40
  Change from baseline weight, Mean: -7.9 kg
[2]; 25 mg, Week 44
  Change from baseline weight, Mean: -8.2 kg
[2]; 25 mg, Week 48
  Change from baseline weight, Mean: -8.8 kg
[2]; 25 mg, Week 52
  Change from baseline weight, Mean: -9.3 kg
[2]; 25 mg, Week 56 (treatment discontinued at week 52)
  Change from baseline weight, Mean: -7.7 kg
[2]; 75 mg, N = 48
  Change in weight from baseline to Week 52: Decrease >5 kg, patients: 32 (67) n (%)
  Change in weight from baseline to Week 52: Decrease >10 kg, patients: 14 (29) n (%)
  Change in weight from baseline to Week 52: Decrease >15 kg, patients: 4 (8) n (%)
  Change in weight from baseline to Week 52: Decrease within 5 kg, patients: 12 (25) n (%)
  Change in weight from baseline to Week 52: Increase >5 kg, patients: 0 n (%)
  Change in weight from baseline to Week 52: Increase within 5 kg, patients: 4 (8) n (%)
[2]; 75 mg, Week 4
  Change from baseline weight, Mean: -1.4 kg
[2]; 75 mg, Week 8
  Change from baseline weight, Mean: -2.6 kg
[2]; 75 mg, Week 12
  Change from baseline weight, Mean: -3.4 kg
[2]; 75 mg, Week 16
  Change from baseline weight, Mean: -4.1 kg
  Weight, Mean: 91.7 kg
[2]; 75 mg, Week 20
  Change from baseline weight, Mean: -4.4 kg
  Weight, Mean: 92.0 kg
[2]; 75 mg, Week 24
  Change from baseline weight, Mean: -4.7 kg
  Weight, Mean: 91.7 kg
[2]; 75 mg, Week 28
  Change from baseline weight, Mean: -5.1 kg
  Weight, Mean: 91.8 kg
[2]; 75 mg, Week 32
  Change from baseline weight, Mean: -6.2 kg
  Weight, Mean: 91.6 kg
[2]; 75 mg, Week 36
  Change from baseline weight, Mean: -6.1 kg
  Weight, Mean: 91.0 kg
[2]; 75 mg, Week 40
  Change from baseline weight, Mean: -6.5 kg
  Weight, Mean: 90.6 kg
[2]; 75 mg, Week 44
  Change from baseline weight, Mean: -6.9 kg
  Weight, Mean: 90.8 kg
[2]; 75 mg, Week 48
  Change from baseline weight, Mean: -7.4 kg
  Weight, Mean: 90.4 kg
[2]; 75 mg, Week 52
  Change from baseline weight, Mean: -7.7 kg
  Weight, Mean: 90.0 kg
[2]; [3]
  Change from baseline weight, Mean: -7.6 kg
  Weight, Mean: 90.7 kg
[2]; 150 mg, N = 45
  Change in weight from baseline to Week 52: Decrease >5 kg, patients: 34 (76) n (%)
  Change in weight from baseline to Week 52: Decrease >10 kg, patients: 22 (49) n (%)
  Change in weight from baseline to Week 52: Decrease >15 kg, patients: 12 (27) n (%)
  Change in weight from baseline to Week 52: Decrease within 5 kg, patients: 8 (18) n (%)
  Change in weight from baseline to Week 52: Increase >5 kg, patients: 1 (2) n (%)
  Change in weight from baseline to Week 52: Increase within 5 kg, patients: 2 (4) n (%)
[2]; 150 mg, Week 4
  Change from baseline weight, Mean: -1.3 kg
[2]; 150 mg, Week 8
  Change from baseline weight, Mean: -2.1 kg
[2]; 150 mg, Week 12
  Change from baseline weight, Mean: -3.3 kg
[2]; 150 mg, Week 16
  Change from baseline weight, Mean: -3.9 kg
[2]; 150 mg, Week 20
  Change from baseline weight, Mean: -5.0 kg
[2]; 150 mg, Week 24
  Change from baseline weight, Mean: -5.8 kg
[2]; 150 mg, Week 28
  Change from baseline weight, Mean: -6.7 kg
[2]; 150 mg, Week 32
  Change from baseline weight, Mean: -7.2 kg
[2]; 150 mg, Week 36
  Change from baseline weight, Mean: -8.1 kg
[2]; 150 mg, Week 40
  Change from baseline weight, Mean: -8.7 kg
[2]; 150 mg, Week 44
  Change from baseline weight, Mean: -9.2 kg
[2]; 150 mg, Week 48
  Change from baseline weight, Mean: -10 kg
[2]; 150 mg, Week 52
  Change from baseline weight, Mean: -10 kg
[2]; 150 mg, Week 56 (treatment discontinued at week 52)
  Change from baseline weight, Mean: -9.6 kg
[2]; [4]
  fraction of patients who had lost more than 5 kg: at least two thirds
  fraction of patients who had lost more than 10 kg: Approximately one third
